PubChem BioAssay AID2060506 (Molecular Pharmacology Branch, DTP, NCI, 2025)

Tested on: 598228-144-R-J1-PDC complex spheroid viability
Experiment: Anticancer human tumor 598228-144-R-J1-PDC patient-derived serous endometrial adenocarcinoma cell line growth inhibition [GQUAD]
Settings: for IC50: curve of first compound; for viability, T/C: stronger effect = lower value
Method in brief: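 Viability of tumor cells grown as complex spheroids with endothelial and stromal cells, exposed to drug combinations. Top concentration at or near clinical Cmax (else 10 microM), diluted in half-log increments.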

[1] = second compound 0.0316 µM, first compound 0.0316 µM
[2] = second compound 0.0316 µM, first compound 0.1 µM
[3] = second compound 0.0316 µM, first compound 0.316 µM
[4] = second compound 0.0316 µM, first compound 1 µM
[5] = second compound 0.0316 µM, first compound 3.16 µM
[6] = second compound 0.0316 µM, first compound 10 µM
[7] = second compound 0.1 µM, first compound 0.0316 µM
[8] = second compound 0.1 µM, first compound 0.1 µM
[9] = second compound 0.1 µM, first compound 0.316 µM
[10] = second compound 0.1 µM, first compound 1 µM
[11] = second compound 0.1 µM, first compound 3.16 µM
[12] = second compound 0.1 µM, first compound 10 µM
[13] = second compound 0.316 µM, first compound 0.0316 µM
[14] = second compound 0.316 µM, first compound 0.1 µM
[15] = second compound 0.316 µM, first compound 0.316 µM
[16] = second compound 0.316 µM, first compound 1 µM
[17] = second compound 0.316 µM, first compound 3.16 µM
[18] = second compound 0.316 µM, first compound 10 µM
[19] = second compound 1 µM, first compound 0.0316 µM
[20] = second compound 1 µM, first compound 0.1 µM
[21] = second compound 1 µM, first compound 0.316 µM
[22] = second compound 1 µM, first compound 1 µM
[23] = second compound 1 µM, first compound 3.16 µM
[24] = second compound 1 µM, first compound 10 µM
[25] = second compound 3.16 µM, first compound 0.0316 µM
[26] = second compound 3.16 µM, first compound 0.1 µM
[27] = second compound 3.16 µM, first compound 0.316 µM
[28] = second compound 3.16 µM, first compound 1 µM
[29] = second compound 3.16 µM, first compound 3.16 µM
[30] = second compound 3.16 µM, first compound 10 µM
[31] = second compound 10 µM, first compound 0.0316 µM
[32] = second compound 10 µM, first compound 0.1 µM
[33] = second compound 10 µM, first compound 0.316 µM
[34] = second compound 10 µM, first compound 1 µM
[35] = second compound 10 µM, first compound 3.16 µM
[36] = second compound 10 µM, first compound 10 µM
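Note: spheroids exposed to the agents for one week before reading.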
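Throughout, for viability, T/C: percent of vehicle DMSO control viability so 100% = untreated growth.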

With C=CC(=O)N1CCN(c2nc(=O)n(-c3c(C)ccnc3C(C)C)c3nc(-c4c(O)cccc4F)c(F)cc23)C(C)C1 (stereo unspecified) + Cc1cnc(CNC(=O)c2c(=O)c3ccc(N4CCCN(C)CC4)nc3n3c2sc2ccccc23)cn1 the IC50 (second compound 0.0316 µM) was > 10000 nM, the IC50 (second compound 0.1 µM) was > 10000 nM and the IC50 (second compound 0.316 µM) was > 10000 nM. The IC50 (second compound 1 µM) was > 10000 nM, the IC50 (second compound 3.16 µM) was > 10000 nM and the IC50 (second compound 10 µM) was < 31.6 nM. For the same compound, the viability, T/C [1] was 92.7%, the viability, T/C [2] was 97.3% and the viability, T/C [3] was 91%. It also gave a viability, T/C [4] of 83.2%, a viability, T/C [5] of 102% and a viability, T/C [6] of 82.9%. The viability, T/C [7] was 80.8%, the viability, T/C [8] was 66.3% and the viability, T/C [9] was 77.6%. It also gave a viability, T/C [10] of 81.7%, a viability, T/C [11] of 86.4% and a viability, T/C [12] of 80.4%. For the same compound, the viability, T/C [13] was 89.3%, the viability, T/C [14] was 55.1% and the viability, T/C [15] was 62.6%. The viability, T/C [16] was 73.3%, the viability, T/C [17] was 80.6% and the viability, T/C [18] was 64.1%. The viability, T/C [19] was 65.1%, the viability, T/C [20] was 74.9% and the viability, T/C [21] was 58.2%. For the same compound, the viability, T/C [22] was 83%, the viability, T/C [23] was 77.6% and the viability, T/C [24] was 79.8%. It also gave a viability, T/C [25] of 69%, a viability, T/C [26] of 60.4% and a viability, T/C [27] of 60.1%. For the same compound, the viability, T/C [28] was 55.4%, the viability, T/C [29] was 63.3% and the viability, T/C [30] was 54%. The viability, T/C [31] was 48.1%, the viability, T/C [32] was 36% and the viability, T/C [33] was 60.9%. The viability, T/C [34] was 50.9%, the viability, T/C [35] was 51.5% and the viability, T/C [36] was 5.43%.

COc1cccc2c1C(=O)c1c(O)c3c(c(O)c1C2=O)CC(O)(C(=O)CO)CC3OC1CC(N)C(O)C(C)O1 (stereo unspecified) + CN(C)c1ccc(Nc2c3ccc(NC(=O)CCN4CCCC4)cc3nc3cc(NC(=O)CCN4CCCC4)ccc23)cc1 was tested, and the IC50 (second compound 0.0316 µM) was 547 nM, the IC50 (second compound 0.1 µM) was 586 nM and the IC50 (second compound 0.316 µM) was 617 nM. The IC50 (second compound 1 µM) was 655 nM, the IC50 (second compound 3.16 µM) was 774 nM and the IC50 (second compound 10 µM) was 536 nM. It also gave a viability, T/C [1] of 79.1%, a viability, T/C [2] of 83.3% and a viability, T/C [3] of 66.6%. The viability, T/C [4] was 31%, the viability, T/C [5] was 1.02% and the viability, T/C [6] was 0.57%. It also gave a viability, T/C [7] of 95.5%, a viability, T/C [8] of 84.8% and a viability, T/C [9] of 71%. It also gave a viability, T/C [10] of 33.5%, a viability, T/C [11] of 2.25% and a viability, T/C [12] of 0.29%. It also gave a viability, T/C [13] of 96.1%, a viability, T/C [14] of 73.2% and a viability, T/C [15] of 68.9%. The viability, T/C [16] was 42.2%, the viability, T/C [17] was 3.61% and the viability, T/C [18] was 0.89%. The viability, T/C [19] was 87.1%, the viability, T/C [20] was 73.7% and the viability, T/C [21] was 58.4%. For the same compound, the viability, T/C [22] was 51.9%, the viability, T/C [23] was 1.46% and the viability, T/C [24] was 1.05%. The viability, T/C [25] was 81.6%, the viability, T/C [26] was 80.1% and the viability, T/C [27] was 71.6%. It also gave a viability, T/C [28] of 44.3%, a viability, T/C [29] of 1.7% and a viability, T/C [30] of 0.36%. For the same compound, the viability, T/C [31] was 59.8%, the viability, T/C [32] was 64.5% and the viability, T/C [33] was 47.7%. For the same compound, the viability, T/C [34] was 42.3%, the viability, T/C [35] was 1.22% and the viability, T/C [36] was 0.77%.

CC(C)(O)C1CCC(Nc2ccc3ncc(-c4cccc(C(F)(F)F)c4)n3n2)CC1 (stereo unspecified) + CN(C)c1ccc(Nc2c3ccc(NC(=O)CCN4CCCC4)cc3nc3cc(NC(=O)CCN4CCCC4)ccc23)cc1 gave an IC50 (second compound 0.0316 µM) of 1860 nM, an IC50 (second compound 0.1 µM) of 1910 nM and an IC50 (second compound 0.316 µM) of 2100 nM. The IC50 (second compound 1 µM) was 1890 nM, the IC50 (second compound 3.16 µM) was 1970 nM and the IC50 (second compound 10 µM) was 1810 nM. It also gave a viability, T/C [1] of 112%, a viability, T/C [2] of 95.7% and a viability, T/C [3] of 79.2%. It also gave a viability, T/C [4] of 78.5%, a viability, T/C [5] of 25.1% and a viability, T/C [6] of 27.3%. For the same compound, the viability, T/C [7] was 96.3%, the viability, T/C [8] was 99% and the viability, T/C [9] was 112%. The viability, T/C [10] was 81.4%, the viability, T/C [11] was 26.6% and the viability, T/C [12] was 24.1%. The viability, T/C [13] was 98.9%, the viability, T/C [14] was 87.8% and the viability, T/C [15] was 112%. For the same compound, the viability, T/C [16] was 85.3%, the viability, T/C [17] was 31% and the viability, T/C [18] was 24.1%. For the same compound, the viability, T/C [19] was 101%, the viability, T/C [20] was 87.9% and the viability, T/C [21] was 128%. The viability, T/C [22] was 79%, the viability, T/C [23] was 29.5% and the viability, T/C [24] was 23.4%. For the same compound, the viability, T/C [25] was 110%, the viability, T/C [26] was 104% and the viability, T/C [27] was 107%. For the same compound, the viability, T/C [28] was 89.1%, the viability, T/C [29] was 22.6% and the viability, T/C [30] was 21.8%. The viability, T/C [31] was 93.3%, the viability, T/C [32] was 75.3% and the viability, T/C [33] was 81.7%. It also gave a viability, T/C [34] of 76.6%, a viability, T/C [35] of 24.8% and a viability, T/C [36] of 16.6%.
